Reference: patent US20030064385A1, “Genes expressed in breast cancer as prognostic and therapeutic targets” (priority 2001, published 2003)

Tested on: primary invasive breast cancer
Test: Clinical tumor response (WHO criteria) in randomized Phase III neoadjuvant trial of letrozole versus tamoxifen; patients with profiled biopsies
Type: in vivo, human
Conditions: clinical outcome of patients with profiled pre-treatment biopsies; postmenopausal women; response by palpation at 4 months
Source text: Definitions of Objective Response Used in the Letrozole (FEMARA™) vs. Tamoxifen Comparison Study
1. Complete Response (CR): The disappearance of all known disease, determined by 2 observations not less than 4 weeks apart.
2. Partial Response (PR): A 50% or more decrease in total tumor size of the lesions which have been measured to determine the effect of therapy by 2 observations not less than 4 weeks apart. In addition there can be no appearance of new lesions or progression of any lesion.
4. Progressive Disease (PD): A 25% or more increase in the size of one or more measurable lesions, or the appearance of new lesions.
Clinical Response Assessment
The primary efficacy variable was tumor response, assessed by clinical examination using World Health Organization (WHO) criteria (see, WHO Handbook for Reporting Results of Cancer Treatment). It was defined as the percentage of patients in each treatment group with a CR or PR as determined clinically in the breast by palpation at 4 months. Possible responses were CR, PR, NC, PD or not assessable/not evaluable (NA/NE). Palpable ipsilateral axillary lymph nodal involvement downgraded a clinical CR in tumor. Other factors were also considered such the percentage of patients who underwent breast-conserving surgery (quadrantectomy/lumpectomy) instead of mastectomy. Patients who became inoperable, or who remained inoperable at 4 months, were counted as treatment failures.
Twenty-one RNA samples were extracted from 14-gauge needle core biopsies collected before initiation of neoadjuvant endocrine therapy from patients enrolled in a randomized Phase III trial of letrozole (FEMARA™, Novartis Pharma, Basal Switzerland) versus tamoxifen for postmenopausal women with primary invasive breast cancer ineligible for breast conserving surgery. RNA was extracted from an additional 30 primary breast adenocarcinomas collected in Sweden, one additional ESR1+breast tumor surgical biopsy, two HUVEC samples, two samples from glioblastoma cell line U373-MG and one MCF7 sample using Trizol (Life Technologies, Gaithersburg, Md.). The clinical samples were collected after informed consent had been obtained according to protocols approved by local ethics committees. RNA was purchased for two samples, an infiltrating Stage III duct carcinoma (Ambion, Austin, Tex.) and a pool of two normal breast tissues (Clontech, Palo Alto, Calif.). The total number of samples prepared was 59 including 53 breast cancer biopsies and one pooled normal breast sample. Total RNA was purified using QIAGEN RNEASY™ columns (Qiagen, Valencia, Calif.), processed and hybridized to the HUGENE™ FL 6800 Array (Affymetrix, Santa Clara, Calif.), as described by Lockhart et al., Nat. Biotechnol., Vol. 14, pp. 1675-1680 (1996).
In another aspect of the invention 136 breast biopsies from 53 patients were obtained. RNA was extracted from 116 biopsies. Expression profiles were generated for 43 biopsies from 35 patients. Predictive markers of endocrine therapy responsiveness in breast tumors were identified. The breakdown of the profiled biopsies from the pre-letrozole (FEMARA™) treatments and the patient's clinical outcome was as follows: four patients with CR, nine patients with PR, four patients with NC and four patients with PD.
For the group treated with tamoxifen there were no patients in the CR category, 10 patients with PR, seven patients with NC and four patients with PD.

Row | Structure (SMILES) | patients with CR (complete response) | patients with NC (no change) | patients with PD (progressive disease) | patients with PR (partial response)
1 | N#Cc1ccc(C(c2ccc(C#N)cc2)n2cncn2)cc1 [letrozole] | four | four | four | nine
2 | CC/C(=C(\c1ccccc1)c1ccc(OCCN(C)C)cc1)c1ccccc1 [tamoxifen] | no patients | seven | four | 10 patients
